Reference: patent US10104891B2 (priority 2014, dated 2018)

Assays:
Assay type in all cases: in vivo
[1] = tested on: Pseudoperonospora cubensis; assay: Test 2: control effect against cucumber downy mildew; conditions: Pseudoperonospora cubensis, 120 h, control value vs untreated section
In short: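 Protective test: zoospores (1.0×10^4 units/ml) misted one day after applying a 4 ppm suspension (wettable powder diluted in 1/5000 Tween20) to 2-leaf cucumber, Sagami hanjiro. After 16 hr at 22° C humid incubation, leaf lesion area read at day 5, expressed as control value versus untreated leaves.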

[2] = tested on: Phytophthora infestans; assay: whole plant or invertebrate; conditions: Phytophthora infestans, in Solanum lycopersicum, 96 h, read-out: control value (Test 1)
[3] = tested on: Plasmopara viticola; assay: Test 3: control effect against grape downy mildew; conditions: Plasmopara viticola, 120 h, control value vs untreated section
In short: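 Leaf lesion area, scored 5 days after inoculation and compared with untreated plants, gives the control value. Inoculation used P. viticola zoospores (1.0×10^4 units/ml) with a 16 hr moist incubation at 22° C. It followed by one day a spray of 4 ppm compound (wettable powder in Tween20) onto Neomuscat seedlings.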

[4] = tested on: Pythium graminicola; assay: Test 4: control effect against rice damping-off by the Pythium fungus (soil lavage); conditions: 1,000 ppm, 2.5 ml test suspension drenched on contaminated soil, rice (koshihikari)
Experimental: A 10% wettable powder created according to the Pharmaceutical Formulation Example 1 was diluted with a Tween20 solution prepared to a concentration of 1/5000, then the compound of formula [1] was prepared to a concentration of 4 ppm. Further, the compound of formula [1] in Test 4 was adjusted to a concentration of 1,000 ppm.
<Test 4 Test of Control Effect Against Rice Damping-Off by the Pythium Fungus (Soil Lavage)>
Distilled water was added to the flora of Pythium graminicola cultured in bentoglass seed culture and stirred with a mixer, and adjusted the contaminated soil to 5 g of bacteria against 1 kg of soil.
In a cell tray having 31×31 mm^2 per cell, 20 ml of the contaminated soil was filled in each cell, and 3 seeds of rice chaff that has been forced to sprout (Species: koshihikari) were seeded, and 5 ml of soil was added for covering, then 2.5 ml of test suspension was drenched, and the seeds were incubated in a moist chamber adjusted to 28° C. for 72 hr to induce sprouting. Then, in a low temperature room of 5° C., the onset of disease was induced for 2 days, then the disease was nurtured for 14 days in a room of 25° C.
The soil was washed, and the apoptosis strain, growth restrained strain, and a healthy strain were measured and the onset rate was calculated by the following formula. Onset rate=[Σ(onset strain number by level×onset index)/(investigated strain×3)]×100 [Onset Index]
1: Growth restrained strain
Also, the following formula was used to compute the control value from the obtained onset index. control value={1−onset area rate at the section applied the test agent/onset area rate of untreated section}×100 Computational formula of the control value: […]

Structure (SMILES) | pest or weed control at 4 µg/mL [1] | pest or weed control at 4 µg/mL [2] | pest or weed control at 4 µg/mL [3] | pest or weed control at 1000 ppm [4]
Cc1cc(C(F)(F)F)nn1CC(=O)N1CCC(c2nc(C3OCc4cccc(Cl)c4CO3)cs2)CC1 (stereo not drawn) [Compound 1-23, 4-[4-(6-chloro-1,5-dihydro-3H-2,4-benzodioxepin-3-yl)-2-thiazolyl]-1-[2-[5-methyl-3-(trifluoromethyl)-1H-pyrazole-1-yl]acetyl]piperidine] | 100% | 100% | 100% | ≥ 90%
Cc1ccc(C)c(CC(=O)N2CCC(c3nc(C4OCc5cccc(F)c5CO4)cs3)CC2)c1 (stereo not drawn) [Compound 2-7, 4-[4-(6-fluoro-1,5-dihydro-3H-2,4-benzodioxepin-3-yl)-2-thiazolyl]-1-[2-(2,5-dimethylphenyl)acetyl]piperidine] | 100% | 100% | 100% | ≥ 90%
Cc1cc(C(F)(F)F)nn1CC(=O)N1CCC(c2nc(C3OCc4cccc(C(F)F)c4CO3)cs2)CC1 (stereo not drawn) [Compound 1-97, 4-[4-[6-(difluoromethyl)-1,5-dihydro-3H-2,4-benzodioxepin-3-yl]-2-thiazolyl]-1-[2-[5-methyl-3-(trifluoromethyl)-1H-pyrazole-1-yl]acetyl]piperidine] | 100% | 100% | 100% | ≥ 90%
Cc1cc(C(F)(F)F)nn1CC(=O)N1CCC(c2nc(C3OCc4cccc(OS(=O)(=O)N(C)C)c4CO3)cs2)CC1 (stereo not drawn) [Compound 1-90, 4-[4-[6-(dimethylaminosulfonyloxy)-1,5-dihydro-3H-2,4-benzodioxepin-3-yl]-2-thiazolyl]-1-[2-[5-methyl-3-(trifluoromethyl)-1H-pyrazole-1-yl]acetyl]piperidine] | 100% | 100% | 100% | ≥ 90%
O=C(Cn1nc(C(F)(F)F)cc1C(F)(F)F)N1CCC(c2nc(C3OCc4ccc(F)cc4CO3)cs2)CC1 (stereo not drawn) [Compound 1-91, 4-[4-(7-fluoro-1,5-dihydro-3H-2,4-benzodioxepin-3-yl)-2-thiazolyl]-1-[2-[3,5-bis(trifluoromethyl)-1H-pyrazole-1-yl]acetyl]piperidine] | 100% | 100% | 100% | ≥ 90%
Cc1ccc(C)c(CC(=O)N2CCC(c3nc(C4OCc5cccc([N+](=O)[O-])c5CO4)cs3)CC2)c1 (stereo not drawn) [Compound 2-39, 4-[4-(6-nitro-1,5-dihydro-3H-2,4-benzodioxepin-3-yl)-2-thiazolyl]-1-[2-(2,5-dimethylphenyl)acetyl]piperidine] | 100% | 100% | 100% | ≥ 90%
Cc1cc(C(F)(F)F)nn1CC(=O)N1CCC(c2nc(C3OCc4cccc(Br)c4CO3)cs2)CC1 (stereo not drawn) [Compound 1-15, 4-[4-(6-bromo-1,5-dihydro-3H-2,4-benzodioxepin-3-yl)-2-thiazolyl]-1-[2-[5-methyl-3-(trifluoromethyl)-1H-pyrazole-1-yl]acetyl]piperidine] | 100% | 100% | 100% | ≥ 90%
CCCCS(=O)(=O)Oc1cccc2c1COC(c1csc(C3CCN(C(=O)Cn4nc(C(F)(F)F)cc4C)CC3)n1)OC2 (stereo not drawn) [Compound 1-21, 4-[4-(6-butylsulfonyloxy-1,5-dihydro-3H-2,4-benzodioxepin-3-yl)-2-thiazolyl]-1-[2-[5-methyl-3-(trifluoromethyl)-1H-pyrazole-1-yl]acetyl]piperidine] | 100% | 90% | 100% | ≥ 90%
O=C(Cc1cc(Cl)ccc1Cl)N1CCC(c2nc(C3OCc4cccc(Br)c4CO3)cs2)CC1 (stereo not drawn) [Compound 2-19, 4-[4-(6-bromo-1,5-dihydro-3H-2,4-benzodioxepin-3-yl)-2-thiazolyl]-1-[2-(2,5-dichlorophenyl)acetyl]piperidine] | 100% | 100% | 100% | ≥ 90%
